Target: Sodium-dependent dopamine transporter (Rattus norvegicus, UniProt P23977)
Test: Ability to displace [3H]WIN-35428 from dopamine transporter in rat caudate putamen tissue
Assay type: tissue-based

Chain of Sodium-dependent dopamine transporter (P23977 whole entry): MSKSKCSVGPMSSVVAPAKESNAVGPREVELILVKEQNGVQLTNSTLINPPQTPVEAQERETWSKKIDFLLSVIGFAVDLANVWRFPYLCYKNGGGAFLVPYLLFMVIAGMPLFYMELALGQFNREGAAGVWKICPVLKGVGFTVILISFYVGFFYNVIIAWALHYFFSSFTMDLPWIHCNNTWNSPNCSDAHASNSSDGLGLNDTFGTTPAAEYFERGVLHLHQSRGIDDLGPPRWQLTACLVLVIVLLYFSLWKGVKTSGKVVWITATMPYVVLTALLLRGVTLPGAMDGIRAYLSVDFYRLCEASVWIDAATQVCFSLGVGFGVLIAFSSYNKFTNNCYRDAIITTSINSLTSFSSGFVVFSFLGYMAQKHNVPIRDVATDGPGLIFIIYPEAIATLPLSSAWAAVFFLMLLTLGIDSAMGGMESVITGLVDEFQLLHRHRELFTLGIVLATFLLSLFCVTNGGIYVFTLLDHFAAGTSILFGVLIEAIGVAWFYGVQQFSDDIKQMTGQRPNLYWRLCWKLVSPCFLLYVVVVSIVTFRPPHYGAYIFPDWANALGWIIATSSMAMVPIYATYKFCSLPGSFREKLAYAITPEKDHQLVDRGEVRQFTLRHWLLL

Question: `OC1(c2ccc(CN3CCCCC3)cc2)c2ccccc2C2=NCCCN21` (configuration not stated) was tested. Which IC50 did it give?
Answer: 1200 nM

Question: With `O=C(c1ccc(Cl)cc1)c1ccccc1-c1ncc[nH]1` as the compound, how does the IC50 read?
Answer: 2800 nM

Question: Which IC50 does the source give for `COc1ccc(C2(O)c3ccccc3C3=NCCCN32)cc1OC` (configuration not stated) here?
Answer: 87 nM

Question: With `OC1(c2ccc(Cl)cc2)c2ccccc2C2=NCCCN21` (configuration not stated) as the compound, how does the IC50 read?
Answer: 1 nM

Question: How did the IC50 turn out when `Oc1ccc(C2(O)c3ccccc3C3=NCCCN32)cc1` (configuration not stated) was run?
Answer: 3.4 nM

Question: For `OC1(c2cccnc2)c2ccccc2C2=NCCN21` (configuration not stated), which IC50 is on record?
Answer: 640 nM

Question: `[O-][S+](c1ccc(Cl)cc1)c1ccccc1C1=NCCN1` (configuration not stated) was tested. Which IC50 did it give?
Answer: 7300 nM

Question: How did the IC50 turn out when `OC1(c2ccc(C(F)(F)F)cc2)c2ccccc2C2=NCCN21` (configuration not stated) was run?
Answer: 290 nM

Question: How did the IC50 turn out when `CN(C)Cc1ccc(C2(O)c3ccccc3C3=NCCN32)cc1` (configuration not stated) was run?
Answer: 2800 nM

Question: With `COC(=O)c1ccc(C2(O)c3ccccc3C3=NCCN32)cc1` (configuration not stated) as the compound, how does the IC50 read?
Answer: 3300 nM

Question: Which IC50 does the source give for `Clc1ccc(Sc2ccccc2C2=NCCN2)cc1` here?
Answer: 320 nM

Question: Which IC50 does the source give for `OC1(c2ccc3ccccc3c2)c2ccccc2C2=NCCN21` (configuration not stated) here?
Answer: 23 nM

Question: With `Cn1ccnc1-c1ccccc1C(=O)c1ccc(Cl)cc1` as the compound, how does the IC50 read?
Answer: 4300 nM

Question: Which IC50 does the source give for `OC1(c2ccccn2)c2ccccc2C2=NCCN21` (configuration not stated) here?
Answer: 3700 nM

Question: For `COc1ccc(C2(O)c3ccccc3C3=NCCCN32)cc1` (configuration not stated), which IC50 is on record?
Answer: 2.5 nM

Question: Which IC50 does the source give for `OC1(c2cccc(C(F)(F)F)c2)c2ccccc2C2=NCCN21` (configuration not stated) here?
Answer: 230 nM

Question: `O=S(=O)(c1ccc(Cl)cc1)c1ccccc1C1=NCCN1` was tested. Which IC50 did it give?
Answer: 6500 nM

Question: `OC1(c2ccc(Cl)cc2)c2ccc3ccccc3c2C2=NCCN21` (configuration not stated) was tested. Which IC50 did it give?
Answer: 16 nM

Question: How did the IC50 turn out when `CC1(C)COC(c2ccc(C(=O)c3ccc(Cl)cc3)cc2)=N1` was run?
Answer: 1900 nM

Question: For `OC1(C/C=C/c2ccccc2)c2ccccc2C2=NCCN21` (configuration not stated), which IC50 is on record?
Answer: 9300 nM

Question: `OC1(C23C[C@H]4C[C@@H](C2)C[C@@H](C3)C4)c2ccccc2C2=NCCN21` (some centres not stated) was tested. Which IC50 did it give?
Answer: 4900 nM

Question: Which IC50 does the source give for `OC1(c2ccc(Cl)cc2)c2cccc3cccc(c23)C2=NCCCN21` (configuration not stated) here?
Answer: 42 nM

Question: `O=C(c1ccc(Cl)cc1)c1cccc(C2=NCCN2)c1` was tested. Which IC50 did it give?
Answer: 2200 nM

Question: `Clc1ccc(Oc2ccccc2C2=NCCN2)cc1` was tested. Which IC50 did it give?
Answer: 190 nM

Question: With `OC1(c2ccc(Cl)cc2)c2ccccc2C2=N[C@@H]3CCCC[C@H]3N21` (some centres not stated) as the compound, how does the IC50 read?
Answer: 34 nM

Question: For `OC1(c2ccc(Cl)cc2)c2ccc3ccccc3c2C2=NCCCN21` (configuration not stated), which IC50 is on record?
Answer: 37 nM

Question: For `OC1CN=C2c3ccccc3C(O)(c3ccc(Cl)cc3)N2C1` (configuration not stated), which IC50 is on record?
Answer: 10 nM

Question: How did the IC50 turn out when `CC1(C2(O)c3ccccc3C3=NCCN32)CCCCC1` (configuration not stated) was run?
Answer: 3500 nM

Question: With `Clc1ccc(Cc2ccccc2C2=NCCN2)cc1` as the compound, how does the IC50 read?
Answer: 4000 nM

Question: For `CC1(C)COC(c2ccccc2C(=O)c2ccc(Cl)cc2)=N1`, which IC50 is on record?
Answer: 560 nM

Question: How did the IC50 turn out when `COc1ccc(C2(O)c3ccccc3C3=NCCN32)cc1OC` (configuration not stated) was run?
Answer: 6900 nM

Question: `OC1(c2ccncc2)c2ccccc2C2=NCCN21` (configuration not stated) was tested. Which IC50 did it give?
Answer: 63 nM

Question: `CC(C)(C)C1(O)c2ccccc2C2=NCCN21` (configuration not stated) was tested. Which IC50 did it give?
Answer: 9500 nM

Question: `OC(c1ccc(Cl)cc1)c1ccc(C2=NCCN2)cc1` (configuration not stated) was tested. Which IC50 did it give?
Answer: 1600 nM

Question: For `C=CCOc1ccc(C2(O)c3ccccc3C3=NCCCN32)cc1` (configuration not stated), which IC50 is on record?
Answer: 72 nM

Question: How did the IC50 turn out when `Cc1ccc(C2(O)c3ccccc3C3=NCCN32)cc1` (configuration not stated) was run?
Answer: 93 nM

Question: For `OC1(c2ccc3ccccc3c2)c2ccc3ccccc3c2C2=NCCN21` (configuration not stated), which IC50 is on record?
Answer: 38 nM

Question: For `OC1(c2ccc(COc3ccccc3)cc2)c2ccccc2C2=NCCN21` (configuration not stated), which IC50 is on record?
Answer: 720 nM

Question: Which IC50 does the source give for `CC1(C)COC(c2cccc(C(O)c3ccc(Cl)cc3)c2)=N1` (configuration not stated) here?
Answer: 16000 nM

Question: `OC1(c2ccc(OCc3ccccc3)cc2)c2ccccc2C2=NCCCN21` (configuration not stated) was tested. Which IC50 did it give?
Answer: 100 nM

Question: With `OC(c1ccc(Cl)cc1)c1ccccc1C1=NCCN1` (stereo in doubt; 53) as the compound, how does the IC50 read?
Answer: 190 nM

Question: For `OC(c1ccc(Cl)cc1)c1ccccc1C1=NCCN1` (stereo in doubt; 54), which IC50 is on record?
Answer: 2700 nM
